# Measurements: patent US10683334B2 (INDIANA UNIVERSITY RESEARCH AND TECHNOLOGY CORPORATION, priority 2016, dated 2020)
# Square brackets hold non-standard residues; d marks the D form. Peptide text beside a SMILES is read from it. Aib = CC(C)(N)C(=O)O
# How the values were obtained:
# [1] = biological target: hGLP-1R (Homo sapiens, UniProt P43220); assay: cAMP luciferase reporter assay, activity at the GLP-1 receptor (Table 3)
# [2] = physchem
# Experimental: 1 or 5 mg of pre-lyophilized peptide in 2 mL Eppendorf tube was treated with 200-400 uL of phosphate buffer (PBS: 50 mM sodium phosphate, 150 mM of sodium chloride, pH7.4). Samples were then vortexed and sonicated for 10 min then equilibrated at RT for 1H, and then centrifuged at 10 krpms for 10 min Concentration of the peptides in obtained supernatant was determined by measuring UV absorbance at λ=280 nm. […] Concentration in aliquots was reassessed as previously with UV absorbance. Change in peptide concentration was evaluated after 48 h and 7 days of storage at 4° C.
# [3] = test system: insulin induced hypoglycemia in diabetic pigs; assay: Pig study: reversal of insulin induced hypoglycemia; format: in vivo, Yucatan miniature swine; details: insulin detemir 0.5 U/kg s.c. at 0 min, peptide 10 nmoles/kg at 240 min
# Experimental: Male diabetic Yucatan miniature swine (4 animals/group) were fed and administered NPH insulin at 8:00 AM and at 12 h prior to the initiation of the study, then fasted until the completion of the final blood glucose measurements. Insulin NPH doses were adjusted based on glucose levels and the animals were randomized to achieve balanced glucose levels across groups. […] Blood glucose was measured at −5, 0 (Pre-Dose), 30, 60, 120, 240, 245, 250, 260, 280, 300, 330, 360 and 480 minutes using a handheld glucometer. The same instrument was used for all animals and two readings were taken per time point to insure consistency. The statistical analysis of the results obtained in the in vivo experiments was performed using Prism 6.0h (GraphPad Software, Calif.) applying regular two-way ANOVA followed by Sidak multiple comparison test between the two treatments. […] The results are presented as means±SEM of four replicates per group.
# [4] = biological target: glucagon receptor (Homo sapiens, UniProt P47871); assay: Luciferase-based glucagon assay (cAMP reporter, HEK293 cells)
# Experimental: At the end of the incubation 100 microliters of LucLite luminescence substrate reagent (Perkin-Elmer, Wellesley, Mass.) were added to each well. […] The luminescent light output indicates activation of the luciferase reporter gene, which in turn is a measure of the activation of the receptor.
# [5] = Thioflavin-T fluorescence assay (fibrillation/aggregation); format: physicochemical
# Experimental: The Thioflavin T (ThT) Assay measures changes of in fluorescence intensity of ThT upon binding to amyloid fibrils. The enhanced fluorescence can be observed by fluorescence microscopy or by fluorescent spectroscopy. The spectroscopic assay is commonly used to monitor fibrilization over time, but the assay is not strictly quantitative and differences in binding have been observed for samples after lyophilization.
# Prepare a ThT stock solution by adding 8 mg ThT to 10 mL phosphate buffer (10 mM phosphate, 150 mM NaCl, pH 7.0) and filter through a 0.2 μm syringe filter. This stock solution should be stored in the dark and is stable for about one week.
# Dilute the stock solution into the phosphate buffer (1 mL ThT stock to 50 mL buffer) on the day of analysis to generate the working solution.
# Add an aliquot of untreated protein solution (5-10 μL) to the cuvette, stir for 1 min, and measure the intensity over 60 s. This serves as the control sample. […]
# Lyophilized peptides were dissolved in appropriate buffer at concentration ˜8-9 mg/mL (1-5 in 0.1N hydrochloric acid; 7, 9 and 11 in 50 mM Sodium Phosphate, 150 mM of sodium chloride, pH7.4). Exact concentration was calculated based on UV absorbance at λ=280 nm and all samples were dissolved further down to equal concentration of 5 mg/mL. […] Fibrillation was measured according to modified Thioflavin-T fluorescence assay protocol. […]
# Chain of glucagon receptor (P47871 26-477): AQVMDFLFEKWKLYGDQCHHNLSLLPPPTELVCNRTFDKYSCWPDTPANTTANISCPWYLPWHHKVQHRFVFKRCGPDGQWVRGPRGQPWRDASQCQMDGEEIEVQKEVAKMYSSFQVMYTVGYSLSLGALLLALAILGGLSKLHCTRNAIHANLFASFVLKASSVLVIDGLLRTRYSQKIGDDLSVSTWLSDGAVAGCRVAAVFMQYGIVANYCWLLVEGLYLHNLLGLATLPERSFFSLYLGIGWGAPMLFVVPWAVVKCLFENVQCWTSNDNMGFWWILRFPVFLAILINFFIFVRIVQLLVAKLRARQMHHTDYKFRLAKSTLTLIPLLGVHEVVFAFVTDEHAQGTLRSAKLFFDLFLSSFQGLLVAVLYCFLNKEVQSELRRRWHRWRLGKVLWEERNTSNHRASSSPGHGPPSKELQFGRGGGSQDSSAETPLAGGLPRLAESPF
# Chain of hGLP-1R (P43220 24-463): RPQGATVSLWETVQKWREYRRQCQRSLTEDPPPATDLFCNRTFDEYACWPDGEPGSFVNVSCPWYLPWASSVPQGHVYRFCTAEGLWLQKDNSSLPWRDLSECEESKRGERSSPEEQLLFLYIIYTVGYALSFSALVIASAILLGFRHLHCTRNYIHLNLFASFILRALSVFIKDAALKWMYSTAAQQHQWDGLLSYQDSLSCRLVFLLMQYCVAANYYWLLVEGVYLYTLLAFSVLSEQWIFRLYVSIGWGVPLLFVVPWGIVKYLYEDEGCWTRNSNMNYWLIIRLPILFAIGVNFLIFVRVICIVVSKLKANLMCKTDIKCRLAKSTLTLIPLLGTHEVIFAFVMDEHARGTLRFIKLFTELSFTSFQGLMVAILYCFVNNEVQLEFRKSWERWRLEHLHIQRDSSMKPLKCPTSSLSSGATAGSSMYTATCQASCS
EC50 [1] [nM],Compound,solubility ([2]; pH 7) [µg/mL],solubility at 1 h ([2]; pH 7.4) [µg/mL],reversal of insulin induced hypoglycemia (blood glucose) [3],in vitro efficacy / potency (in words) ([4]; luciferase-based glucagon assay),"EC50 ([4]; read-out: EC50 [nM] (SDV), luciferase-based glucagon assay, SDV in brackets)",% bioactivity of GCG ([4]; relative to native glucagon) [%],"resistance to fibrillation (thioflavin-T fluorescence, FIG. 2) ([5]; 5 mg/mL, 37° C. 48H without agitation, then 40° C. 48H with agitation)","stability / resistance to fibrillation (ThT assay, FIG. 8) ([5]; 45 hours at 37° C., pH 7.0 in phosphate buffer)"
> 10,"CSCC[C@H](NC(=O)[C@H](CC(C)C)NC(=O)[C@H](Cc1c[nH]c2ccccc12)NC(=O)[C@H](CCC(N)=O)NC(=O)[C@@H](NC(=O)[C@H](Cc1ccccc1)NC(=O)[C@H](CC(=O)O)NC(=O)[C@@H](CCC(N)=O)NC(=O)[C@H](C)NC(=O)[C@H](CCCNC(=N)N)NC(=O)[C@H](CCCNC(=N)N)NC(=O)C(C)(C)NC(=O)[C@H](CC(=O)O)NC(=O)[C@H](CC(C)C)NC(=O)[C@H](Cc1ccc(O)cc1)NC(=O)[C@H](CCCCN)NC(=O)[C@H](CO)NC(=O)[C@H](Cc1ccc(O)cc1)NC(=O)[C@H](CC(=O)O)NC(=O)[C@H](CO)NC(=O)[C@@H](NC(=O)[C@H](Cc1ccccc1)NC(=O)[C@@H](NC(=O)CNC(=O)[C@H](CCC(N)=O)NC(=O)[C@H](CO)NC(=O)[C@@H](N)Cc1c[nH]cn1)[C@@H](C)O)[C@@H](C)O)C(C)C)C(=O)N[C@@H](CC(=O)O)C(=O)N[C@@H](CCC(=O)O)C(=O)O [SEQ ID NO: 981, Aib16, q20, D28, E29] (H-HSQGTFTSDYSKYLD[Aib]RRA[dQ]DFVQWLMDE-OH; N-terminus and C-terminus assumed)",,,,,,,,
> 10,"CSCC[C@H](NC(=O)[C@H](CC(C)C)NC(=O)[C@H](Cc1c[nH]c2ccccc12)NC(=O)[C@H](CCC(N)=O)NC(=O)[C@@H](NC(=O)[C@H](Cc1ccccc1)NC(=O)[C@H](CC(=O)O)NC(=O)[C@@H](CCC(N)=O)NC(=O)[C@H](C)NC(=O)[C@H](CCCNC(=N)N)NC(=O)[C@H](CCCNC(=N)N)NC(=O)C(C)(C)NC(=O)[C@H](CC(=O)O)NC(=O)[C@H](CC(C)C)NC(=O)[C@H](Cc1ccc(O)cc1)NC(=O)[C@H](CCCCN)NC(=O)[C@H](CO)NC(=O)[C@H](Cc1cccnc1)NC(=O)[C@H](CC(=O)O)NC(=O)[C@H](CO)NC(=O)[C@@H](NC(=O)[C@H](Cc1ccccc1)NC(=O)[C@@H](NC(=O)CNC(=O)[C@H](CCC(N)=O)NC(=O)[C@H](CO)NC(=O)[C@@H](N)Cc1c[nH]cn1)[C@@H](C)O)[C@@H](C)O)C(C)C)C(=O)N[C@@H](CC(N)=O)C(=O)N[C@H](C(=O)O)[C@@H](C)O [SEQ ID NO: 971, 3-Pal10, Aib16, q20]",,,,,,,,
,"CSCC[C@H](NC(=O)[C@H](CC(C)C)NC(=O)[C@H](Cc1c[nH]c2ccccc12)NC(=O)[C@H](CCC(N)=O)NC(=O)[C@@H](NC(=O)[C@H](Cc1ccccc1)NC(=O)[C@H](CC(=O)O)NC(=O)[C@H](CCC(N)=O)NC(=O)[C@H](C)NC(=O)[C@H](CCCNC(=N)N)NC(=O)[C@H](CCCNC(=N)N)NC(=O)C(C)(C)NC(=O)[C@H](CC(=O)O)NC(=O)[C@H](CC(C)C)NC(=O)[C@H](Cc1cccnc1)NC(=O)[C@H](CCCCN)NC(=O)[C@H](CO)NC(=O)[C@H](Cc1cccnc1)NC(=O)[C@H](CC(=O)O)NC(=O)[C@H](CO)NC(=O)[C@@H](NC(=O)[C@H](Cc1cccnc1)NC(=O)[C@@H](NC(=O)CNC(=O)[C@H](CCC(N)=O)NC(=O)[C@H](CO)NC(=O)[C@@H](N)Cc1cnc[nH]1)[C@@H](C)O)[C@@H](C)O)C(C)C)C(=O)N[C@@H](CC(N)=O)C(=O)N[C@H](C(=O)O)[C@@H](C)O [Compound 9, HSQGTXTSDXSKXLDZRRAQDFVQWLMNT]",> 10000,> 10000,reverse insulin induced hypoglycemia,fully potent,0.0714,28,resistant to fibrillation,showed stability
